Results as given in patent EP3466419B1, “USE OF TRIMETHOXYBENZYL ACETYLSINAPATE, ADVANTAGEOUSLY IN COMBINATION WITH AT LEAST ONE SUNSCREEN, FOR PROTECTING THE SKIN” (Thorel, Jean-Noël, priority 2017, dated 2019).

System: Nrf2
Assay: Induction of the Nrf2 pathway, luciferase reporter assay in the « ARE Reporter-HepG2 » cell model
Format: cell-based
Conditions: 18 hours of contact, relative to solvent control cells
Description: Le but de l'étude est d'évaluer l'induction de la voie Nrf2 dans le modèle cellulaire « ARE Reporter-HepG2 » (HepG2; BPS BIOSCIENCE) [Lee et al., (2004), Dinkova-Kostova et al., (2002)] par l'actif visé dans l'invention.
En parallèle du test de cytotoxicité, des cellules HepG2 ont été également ensemencées dans des puits de plaques à 96 puits (plaques opaques avec fond transparent) à raison de 40 000 cellules/puits (volume de 100 µL), en milieu M1.
Seuls les 60 puits centraux des plaques ont été utilisés, les puits restants n'ont reçu que du PBS.
Après adhésion des cellules, le milieu de culture M1 a été enlevé. Les cellules ont été traitées (volume final: 50 µL) avec le produit à l'essai, dilué dans le milieu de culture M1 (n=3/concentration à tester, 1 concentration/produit), pendant 18 heures. […]
Les puits « sans cellules » ont servi à la détection de la luminescence liée au bruit de fond du milieu. Les puits « cellules témoins » ont servi à la détection de la luminescence intrinsèque du système d'essais (sans activation). […]
A la fin de la période d'incubation (18 heures à 37°C, 5 % de CO2), les cellules ont été lysées par ajout de 100 µL du réactif « One-step luciferase assay system ». La luminescence émise par la luciférase néo-synthétisée a été évaluée avec un luminomètre Optima. […]

Structure (SMILES)	activity at 0.00125 % (dose 0,00125 %, read-out: taux d'activation de Nrf2) [%]	activity at 3 µM (Homo sapiens, HepG2, 3 µM, read-out: luminescence émise par les cellules HepG2 traitées, en comparaison au témoin solvant (activation de Nrf2)) [%]
COc1cc(COC(=O)/C=C/c2cc(OC)c(OC(C)=O)c(OC)c2)cc(OC)c1OC [trimethoxybenzyl acetylsinapate, 3-[4-(acetyloxy)-3,5-dimethoxyphenyl] -(3,4,5-trimethoxyphenyl)methyl ester-(2E)-Propenoic acid]	164	–
C[S+]([O-])CCCCN=C=S (centres unmarked) [sulforaphane]	–	438
